From patent US9132188B2, “Chemically Programmed Vaccination” (The Scripps Research Institute, priority 2009, dated 2015)

Test system: CT26 tumors
Test: Syngeneic colon cancer model, CT26 tumors in JW-KLH-immunized BALB/C mice
Assay type: in vivo
Conditions: 200 μL i.p. days 2-17; compared with PBS
Procedure: FIG. 5 illustrates inhibition of tumor growth in syngenic mice mediated by adaptor-targeted antibodies. […] Mice (six per group) were treated between days 2 and 17 with 200 μL i.p. injections of PBS alone, 60 μg/mL SCS-873 in PBS, or 27.5 μg/mL SCS-397 in PBS. Mean tumor volumes±SD were determined at 3-day intervals from 12 to 30 days post-grafting. […] Mice (six per group) were treated between days 2 and 17 with 200 μL i.p. injections of PBS alone, 77 μg/mL cRGD-dk in PBS, or 42.5 μg/mL cRGD in PBS. Mean tumor volumes±SD were determined at 3-day intervals from 12 to 30 days post-grafting. […] Mean tumor volumes±SD were determined at 3-day intervals from 12 to 24 days post-grafting. […] Mean tumor volumes±SD were determined at 3-day intervals from 12 to 24 days post-grafting.
On day 65, JW-KLH-immunized BALB/C mice were sorted (6 groups with 6 animals each) to form matched anti-JW titer groups and were inoculated s.c. into right flanks with 0.1 mL (2×10^5 cells/mouse) of CT26 cell suspension in PBS (day 0 for tumor model). […] Tumor volumes of treated animals were measured over the skin in two dimensions using a slide caliper every third day starting on day 12, and the tumor volume was calculated according to the following formula, ½(width)^2×length. Toxicity was monitored by determining the body weight of mice once a week. […]

Substance: cyclo(Arg-Gly-Asp-D-Phe-Lys) [cRGD]
- growth of CT26 tumors (in words): no more effective than treatment with PBS
